Source: PubChem BioAssay AID1963827 (Molecular Pharmacology Branch, DTP, NCI, 2024)

Tested on: 994946-033-R-J1-PDC complex spheroid viability
Assay: Anticancer human tumor 994946-033-R-J1-PDC patient-derived melanoma cell line growth inhibition [POLQ]
Conditions: for IC50: curve of first compound; for viability, T/C: stronger effect = lower value
In short: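 Growth inhibition in 3D: complex spheroids (tumor PDC, HUVEC, MSC) treated with POLQ inhibitor combinations; where Cmax unknown, highest tested concentration 10 microM, except SN-38 at 1 microM.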

[1] = second compound 0.0316 µM, first compound 0.0316 µM
[2] = second compound 0.0316 µM, first compound 0.1 µM
[3] = second compound 0.0316 µM, first compound 0.316 µM
[4] = second compound 0.0316 µM, first compound 1 µM
[5] = second compound 0.0316 µM, first compound 3.16 µM
[6] = second compound 0.0316 µM, first compound 10 µM
[7] = second compound 0.1 µM, first compound 0.0316 µM
[8] = second compound 0.1 µM, first compound 0.1 µM
[9] = second compound 0.1 µM, first compound 0.316 µM
[10] = second compound 0.1 µM, first compound 1 µM
[11] = second compound 0.1 µM, first compound 3.16 µM
[12] = second compound 0.1 µM, first compound 10 µM
[13] = second compound 0.316 µM, first compound 0.0316 µM
[14] = second compound 0.316 µM, first compound 0.1 µM
[15] = second compound 0.316 µM, first compound 0.316 µM
[16] = second compound 0.316 µM, first compound 1 µM
[17] = second compound 0.316 µM, first compound 3.16 µM
[18] = second compound 0.316 µM, first compound 10 µM
[19] = second compound 1 µM, first compound 0.0316 µM
[20] = second compound 1 µM, first compound 0.1 µM
[21] = second compound 1 µM, first compound 0.316 µM
[22] = second compound 1 µM, first compound 1 µM
[23] = second compound 1 µM, first compound 3.16 µM
[24] = second compound 1 µM, first compound 10 µM
[25] = second compound 3.16 µM, first compound 0.0316 µM
[26] = second compound 3.16 µM, first compound 0.1 µM
[27] = second compound 3.16 µM, first compound 0.316 µM
[28] = second compound 3.16 µM, first compound 1 µM
[29] = second compound 3.16 µM, first compound 3.16 µM
[30] = second compound 3.16 µM, first compound 10 µM
[31] = second compound 10 µM, first compound 0.0316 µM
[32] = second compound 10 µM, first compound 0.1 µM
[33] = second compound 10 µM, first compound 0.316 µM
[34] = second compound 10 µM, first compound 1 µM
[35] = second compound 10 µM, first compound 3.16 µM
[36] = second compound 10 µM, first compound 10 µM
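Note: spheroids exposed to drugs for 7 days.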
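Throughout, for viability, T/C: 100% = DMSO vehicle treated spheroids.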

Molecule `CC1COCCN1c1cc(-c2ccnn2C)c2ccnc(-c3ccn[nH]3)c2n1` (stereo unspecified) + COC1C(OC(N)=O)C(O)C(Oc2ccc3c(O)c(NC(=O)c4ccc(O)c(CC=C(C)C)c4)c(=O)oc3c2C)OC1(C)C has an IC50 (second compound 0.0316 µM) of 48.2 nM, an IC50 (second compound 0.1 µM) of 79.2 nM and an IC50 (second compound 0.316 µM) of 151 nM. For the same molecule, the IC50 (second compound 1 µM) was 77 nM, the IC50 (second compound 3.16 µM) was 57 nM and the IC50 (second compound 10 µM) was 58.4 nM. The viability, T/C [1] was 58.2%, the viability, T/C [2] was 33.9% and the viability, T/C [3] was 31.6%. It also gave a viability, T/C [4] of 18.4%, a viability, T/C [5] of 20.4% and a viability, T/C [6] of 11.8%. For the same molecule, the viability, T/C [7] was 107%, the viability, T/C [8] was 35.2% and the viability, T/C [9] was 21.5%. The viability, T/C [10] was 30.3%, the viability, T/C [11] was 16.8% and the viability, T/C [12] was 12.3%. For the same molecule, the viability, T/C [13] was 72.3%, the viability, T/C [14] was 60.4% and the viability, T/C [15] was 31.5%. It also gave a viability, T/C [16] of 22%, a viability, T/C [17] of 24.5% and a viability, T/C [18] of 13.6%. It also gave a viability, T/C [19] of 100%, a viability, T/C [20] of 34.5% and a viability, T/C [21] of 23.9%. For the same molecule, the viability, T/C [22] was 23.2%, the viability, T/C [23] was 20.8% and the viability, T/C [24] was 12.6%. For the same molecule, the viability, T/C [25] was 76.4%, the viability, T/C [26] was 24.7% and the viability, T/C [27] was 18.2%. It also gave a viability, T/C [28] of 13.4%, a viability, T/C [29] of 14.9% and a viability, T/C [30] of 13.5%. The viability, T/C [31] was 69.2%, the viability, T/C [32] was 32% and the viability, T/C [33] was 21.2%. For the same molecule, the viability, T/C [34] was 32%, the viability, T/C [35] was 18.5% and the viability, T/C [36] was 10.3%.

In the case of `CC1COCCN1c1cc(C2(O)CC3CCC(C2)O3)c2cnn(-c3ccn[nH]3)c2n1` (stereo unspecified) + COC1C(OC(N)=O)C(O)C(Oc2ccc3c(O)c(NC(=O)c4ccc(O)c(CC=C(C)C)c4)c(=O)oc3c2C)OC1(C)C, the IC50 (second compound 0.0316 µM) is reported as 36.6 nM, the IC50 (second compound 0.1 µM) is reported as 50.5 nM and the IC50 (second compound 0.316 µM) is reported as 34 nM. For the same molecule, the IC50 (second compound 1 µM) was 68.1 nM, the IC50 (second compound 3.16 µM) was under 31.6 nM and the IC50 (second compound 10 µM) was 44.5 nM. The viability, T/C [1] was 52.4%, the viability, T/C [2] was 39.7% and the viability, T/C [3] was 17.2%. For the same molecule, the viability, T/C [4] was 25.7%, the viability, T/C [5] was 12.7% and the viability, T/C [6] was 6.6%. The viability, T/C [7] was 61.9%, the viability, T/C [8] was 32.1% and the viability, T/C [9] was 19.1%. It also gave a viability, T/C [10] of 17.5%, a viability, T/C [11] of 11.9% and a viability, T/C [12] of 6.15%. For the same molecule, the viability, T/C [13] was 52.1%, the viability, T/C [14] was 29.5% and the viability, T/C [15] was 19.2%. For the same molecule, the viability, T/C [16] was 16.5%, the viability, T/C [17] was 14.3% and the viability, T/C [18] was 6.89%. The viability, T/C [19] was 79.2%, the viability, T/C [20] was 30.6% and the viability, T/C [21] was 25.5%. For the same molecule, the viability, T/C [22] was 20.1%, the viability, T/C [23] was 14.2% and the viability, T/C [24] was 5.41%. It also gave a viability, T/C [25] of 46.6%, a viability, T/C [26] of 25.5% and a viability, T/C [27] of 23.7%. For the same molecule, the viability, T/C [28] was 18.9%, the viability, T/C [29] was 8.1% and the viability, T/C [30] was 4.51%. The viability, T/C [31] was 56.8%, the viability, T/C [32] was 35.9% and the viability, T/C [33] was 27.6%. It also gave a viability, T/C [34] of 22.5%, a viability, T/C [35] of 15.3% and a viability, T/C [36] of 5.9%.

`CC(C)n1c(=O)n(C)c2cnc3cc(F)c(-c4ccc(OCCCN5CCCCC5)nc4)cc3c21` + COC1C(OC(N)=O)C(O)C(Oc2ccc3c(O)c(NC(=O)c4ccc(O)c(CC=C(C)C)c4)c(=O)oc3c2C)OC1(C)C gave an IC50 (second compound 0.0316 µM) of 4590 nM, an IC50 (second compound 0.1 µM) of 5030 nM and an IC50 (second compound 0.316 µM) of 8570 nM. For the same molecule, the IC50 (second compound 1 µM) was 5250 nM, the IC50 (second compound 3.16 µM) was over 10000 nM and the IC50 (second compound 10 µM) was 6350 nM. For the same molecule, the viability, T/C [1] was 81.5%, the viability, T/C [2] was 65.5% and the viability, T/C [3] was 81.1%. The viability, T/C [4] was 59.1%, the viability, T/C [5] was 60% and the viability, T/C [6] was 36.8%. It also gave a viability, T/C [7] of 73.7%, a viability, T/C [8] of 100% and a viability, T/C [9] of 78.3%. For the same molecule, the viability, T/C [10] was 69.8%, the viability, T/C [11] was 65.2% and the viability, T/C [12] was 31.6%. The viability, T/C [13] was 74.5%, the viability, T/C [14] was 76.7% and the viability, T/C [15] was 68.2%. It also gave a viability, T/C [16] of 68.3%, a viability, T/C [17] of 79.8% and a viability, T/C [18] of 46.5%. The viability, T/C [19] was 86.7%, the viability, T/C [20] was 86.5% and the viability, T/C [21] was 87%. For the same molecule, the viability, T/C [22] was 102%, the viability, T/C [23] was 64.5% and the viability, T/C [24] was 31.6%. It also gave a viability, T/C [25] of 81.8%, a viability, T/C [26] of 68.5% and a viability, T/C [27] of 92.9%. The viability, T/C [28] was 93.8%, the viability, T/C [29] was 66.1% and the viability, T/C [30] was 50.6%. The viability, T/C [31] was 76.1%, the viability, T/C [32] was 65.9% and the viability, T/C [33] was 66.1%. The viability, T/C [34] was 82%, the viability, T/C [35] was 62.1% and the viability, T/C [36] was 40.1%.
